# According to US8263754B2, “Amphiphiles for protein solubilization and stabilization” (Wisconsin Alumni Research Foundation, priority 2008, dated 2012):
# Entries after “also recorded” stand apart in the source; their conditions may differ. Read-outs that look alike come from different tables or passages of the source.
# Assays:
# [1] = test system: LHI-RC superassembly in Rhodobacter capsulatus membranes; conditions: for extraction of LHI-RC superassembly from R. capsulatus membranes: solubilized protein, optical spectroscopy; for Level (S/P solubilization rank and detergent strength): detergent at 10x CMC, 30 minutes at 32° C.
# Text: These complexes, normally embedded in the bacterial membrane, are highly pigmented and several outcomes from an assay are possible, including no degradation, partial degradation or complete degradation upon solubilization, or no solubilization. Thus, graded comparative evaluations could be obtained for a set of candidates such as the amphiphiles described herein.
# In the engineered strain of R. capsulatus employed, the photosynthetic unit was comprised of a very labile LHI complex and a more resilient RC complex. An ideal amphiphile for this system will extract the intact LHI-RC superassembly from a bacterial membrane preparation and maintain the natural interactions among the components. Amphiphiles with a more disruptive effect will dissociate and denature LHI, leaving only intact RC, and even harsher amphiphiles will cause RC degradation. Each of these various outcomes can be assessed unambiguously via optical spectroscopy (FIG. 2 inset).
# Measurements. The starting material for the screening protocols and stability measurements included specialized photosynthetic membranes from an engineered strain of Rhodobacter (R.) capsulatus, U43[pUHTM86Bgl]
# To begin the solubilization and purification process, frozen aliquots of R. capsulatus membranes were thawed, homogenized, and equilibrated to 32° C. for 30 minutes. […] For subsequent experiments, the amphiphiles were evaluated at 10-fold CMC during the solubilization step.
# The membrane samples were allowed to incubate with the amphiphile for 30 minutes at 32° C. The solubilized material was then separated from the membrane debris in an ultracentrifuge at 315,000×g at 4° C. for 30 minutes. […] After a UV-Vis-nearIR absorption spectrum was recorded, the resuspended pellet was discarded. […] The tubes were then incubated and inverted for 1 hour at 4° C.
# Once binding was complete, samples were loaded onto resin-retaining spin columns (e.g., emptied His Spin Trap™ columns; GE Healthcare). The columns were then inserted into a 2 mL microcentrifuge tube to retain the filtered solution during centrifugation. […] Finally, protein was eluted into a fresh microcentrifuge tube with three 0.2 mL elution buffer aliquots (this buffer was identical to binding buffer with the addition of 1 M imidazole).
# The R. capsulatus LHI-RC complexes extracted and purified by this procedure contain large numbers of cofactors that have absorptions at distinct wavelengths, and each component of the LHI-RC superassembly has a different inherent stability outside the lipid bilayer. The solubilization protocol outlined above therefore provides a multifaceted assessment of the efficacy of conventional detergents and novel amphiphiles. UV-Vis absorption spectroscopy data obtained at various stages of the protocol allow one to determine which protein components have degraded at these stages. […] The disruption potential was measured as the yield of superassembly extracted during solubilization (or, alternatively and more precisely, as the absence of superassembly in the pellet from the spin following solubilization).
# The stabilizing propensity was determined from the spectra of the purified protein. An amphiphile was judged to be mild and stabilizing if it allowed the purification of fully intact LHI-RC superassembly (dominant absorption band at 875 nm). […] An amphiphile was judged to be of intermediate strength if it allowed for the purification of fully intact RC with damaged or missing LHI (dominant absorption at 800 nm with a shoulder at 875 nm; damaged LHI still bound to RC absorbs at 760 nm).
# First, solubilization (illustrated in “STEP 1” of FIG. 12) denotes the ability of a surfactant to penetrate, integrate and disrupt a lipid bilayer.
# [2] = molecular target: T1, bacteriorhodopsin (bR) (Halobacterium salinarum, UniProt P02945); conditions: cited from earlier work
# T1 sequence (P02945 14-262): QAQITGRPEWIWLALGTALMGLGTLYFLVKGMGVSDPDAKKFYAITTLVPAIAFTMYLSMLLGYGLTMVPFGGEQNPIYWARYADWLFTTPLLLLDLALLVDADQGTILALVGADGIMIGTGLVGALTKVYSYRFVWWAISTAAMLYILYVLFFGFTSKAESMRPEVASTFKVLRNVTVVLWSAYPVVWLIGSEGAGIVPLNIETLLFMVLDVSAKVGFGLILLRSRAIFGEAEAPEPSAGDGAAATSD
# [3] = Critical micelle concentration (CMC) by dye solubilization (Orange OT or DPH); assay type: physicochemical; conditions: for critical micelle concentration (CMC): aqueous solubilization of Orange OT; for CMC / CMC (%): determined by DPH (diphenylhexatriene) or Orange OT
# Text: Aqueous solubilization of Orange OT was used to determine critical micelle concentrations (CMC). […] Facile self-association of these amphiphiles under these conditions may be hindered by the hydrophilicity and/or steric bulk of the triglucoside and dimaltoside headgroups.
# The Critical Micelle Concentrations (CMCs) of compounds of the invention can be determined by standard techniques known to those of skill in the art. For example, CMCs of the carbohydrate-based amphiphiles described herein can be determined by monitoring uptake of a dye (e.g., Orange OT or 1,6-diphenylhexatriene) with increasing detergent concentration, monitored by UV-visible or fluorescence spectroscopy.
# [4] = molecular target: bovine rhodopsin (Bos taurus, UniProt P02699); conditions: cited from earlier work
# [5] = Solubility in water / aqueous buffer; assay type: physicochemical; conditions: for solubility in water: without cosolvents/additives
# [6] = test system: T2, LHI-RC superassembly; assay: Stability over time of solubilized, purified LHI-RC superassembly (A875/A680 ratio); design: species or system Rhodobacter capsulatus; conditions: room temperature, 875 nm/680 nm absorption ratio over two to three weeks
# T2 construct: Starting with protein complexes in their native lipid bilayer; made in house; host or cells: Rhodobacter capsulatus U43[pUHTM86Bgl], intracytoplasmic membranes (strain lacks LHII)
# Protocol: FIG. 3. To monitor the ability of micelles of DDM, TPA-2, and MPA-2(C12) to stabilize membrane protein complexes, spectra of the protein purified by each detergent were recorded as a function of time. The initial spectrum (t=0) was acquired directly after elution of the protein from affinity chromatography. The integrity of the LHI-RC superassembly solubilized by these relatively mild detergents was monitored quantitatively from a scatter-corrected absorbance ratio (A875/A680). The ratio of a sample of completely folded and functional supperassembly is >14.5, and this ratio declines dramatically as the multi-subunit complex disassembles and denatures.
# Stability was monitored by following the 875 nm/680 nm absorption ratio over a two to three weeks (absorption at 680 nm arises from oxidation of bacteriochlorophyll that has dissociated from LHI protein).
# Similar criteria and protocols were used to judge the ability of amphiphiles to maintain solubilized and purified superassembly for extended periods. In this case, UV Vis-nearIR spectra were recorded at regular intervals. The degradation of the material could be monitored with the A875/A680 absorbance ratio, which decreased with time and sample integrity as the dominant 875 nm absorption of intact LHI disappeared and a 680 nm band appeared, indicating the presence of unbound, oxidized cofactors.
SMILES,extraction of LHI-RC superassembly from R. capsulatus membranes [1],critical micelle concentration (CMC) [3] [mM],CMC [3] [mM],CMC (%) [3] [%],Level (S/P solubilization rank and detergent strength) [1],solubility in water [5],stability of solubilized LHI-RC superassembly [6],other results
"CCCCC(CCCC)(CC(=O)NCCC[N+](C)(C)[O-])c1ccccc1 [TPA0, reference compound]",too harsh to be useful for the preparation of intact superassembly,5.5,4.4,0.16,–,–,–,solubilization of bacteriorhodopsin (bR) [2]: effectively solubilized; stability of resulting protein solution (bR) [2]: stable for several weeks; solubilization of bovine rhodopsin [4]: effectively solubilized; stability of resulting protein solution (bovine rhodopsin) [4]: stable for several weeks
CCCCCCCCCCCCC(=O)NCCO[C@@H]1O[C@H](CO)[C@@H](O[C@H]2O[C@H](CO)[C@@H](O)[C@H](O)[C@H]2O)[C@H](O)[C@H]1O [MPA4],–,–,–,–,insoluble,not soluble in water without other additives,–,solubility in aqueous buffer [5]: not soluble in aqueous buffer
CCCCC(CCCC)(CC(=O)NC(CO[C@H]1OC(CO)[C@H](O)C(O)C1O)CO[C@H]1OC(CO)[C@H](O)C(O)C1O)C1CCCCC1 (some centres unmarked) [TPA21],–,1.8,1.8,0.12,–,–,more stabilizing than those of TPA-2,"extraction of LHI-RC superassembly from R. capsulatus membranes ([1]; listed as TPA-2-S): as good as or better than TPA-2 at extracting membrane proteins; also recorded: at least as effective as TPA-2, if not superior; also recorded: equal to or superior to TPA-2 at extracting membrane proteins"
"CCCCCCCCCCCCO[C@@H]1O[C@H](CO)[C@@H](O[C@H]2O[C@H](CO)[C@@H](O)[C@H](O)[C@H]2O)[C@H](O)[C@H]1O [DDM, dodecyl-β-D-maltopyranoside, reference compound]",comparable to TPA-2 and TPA-2-S,–,–,–,–,–,begins to degrade immediately,–
CCCCC(CCCC)(CC(=O)NC(CO[C@H]1OC(CO)[C@H](O)C(O)[C@H]1O)CO[C@H]1OC(CO)[C@H](O)C(O)[C@H]1O)c1ccccc1 (some centres unmarked) [TPA2],intact LHI-RC superassembly in high yield,3.6,3.6,0.24,–,–,remains stable for several days,875 nm/760 nm absorption ratio ([1]; solubilized protein from R. capsulatus membranes): ~8
CCCCC(CCCC)(CC(=O)NCCOC1OC(CO)C(O)C(O)C1O)c1ccccc1 (centres unmarked) [TPA1],–,–,–,–,insoluble,not water-soluble without other cosolvents,–,–
CCCCCCCCCCCCC(=O)NCCO[C@@H]1O[C@H](CO)[C@@H](O)[C@H](O)[C@H]1O [MPA1],–,–,–,–,insoluble,not soluble in water without other additives,–,solubility in aqueous buffer [5]: not soluble in aqueous buffer
